Results as given in patent US10201556B2, “Combination for use in treating diseases or conditions associated with melanoma, or treating diseases or conditions associated with activated B-raf pathway” (InteRNA Technologies B.V., priority 2012, dated 2019).
Entries after “also recorded” stand apart in the source; their conditions may differ.

How the values were obtained:
Assay type in all cases: cell-based, human
[1] = tested on: phospho-ERK1/2; assay: Western immunoblotting of phospho-ERK1/2 protein levels; settings: Western blot
Procedure: (§1) A375Hu cells were seeded in 6-well plates and transfected with different concentrations (10, 50 and 100 nM) of synthetic hsa-miR-129-5p or BRAF siRNA (100 nM) using RNAiMAX (7.5 μl/well). As control a scrambled miRNA and a non-targeting siRNA pool were included. Proteins were harvested 72 hrs post transfection using RIPA buffer supplemented with HALT™ Phosphatase Inhibitor (Thermo Scientific) and Protease Inhibitor Cocktail (Sigma). Fifteen μg protein was loaded on 7.5% TGX acrylamide gels (Bio-Rad) and subsequently transferred to PVDF membranes. The membranes were blocked in 5% milk in TBS-T and incubated O/N at 4° C. with primary antibodies to bRAF, phosphoERK1/2, CDK6, and tubulin (Santa Cruz). After incubation with secondary goat-anti-mouse antibodies (Santa Cruz), membranes were developed using ECL (Pierce).
as §1, with “(1, 10” for “(10, 50”, “hsa-miR-3157” for “hsa-miR-129-5p”, “bRAF, total ERK1/2,” for “bRAF,”, “CDK4, BCL2” for “CDK6,”
as §1, with “concentrations” for “concentrations (10, 50 and 100 nM)”, “vemurafenib (PLX-4032, 0.01, 0.1, 1 uM).” for “synthetic hsa-miR-129-5p or BRAF siRNA (100 nM) using RNAiMAX (7.5 μl/well). As control a scrambled miRNA and a non-targeting siRNA pool were included.”, “bRAF, total ERK1/2,” for “bRAF,”, “CDK4, BCL2” for “CDK6,”
(§2) A2058 cells were seeded in 6-well plates and transfected with different concentrations (1, 10 and 100 nM) of synthetic hsa-miR-3157-5p or BRAF siRNA using X-TremeGene (Roche, 15 μl/well). As control a scrambled miRNA was included. Proteins were harvested 72 hrs post transfection using RIPA buffer supplemented with HALT™ Phosphatase Inhibitor (Thermo Scientific) and Protease Inhibitor Cocktail (Sigma). Fifteen μg protein was loaded on 10% TGX acrylamide gels (Bio-Rad) and subsequently transferred to PVDF membranes. The membranes were blocked in 5% milk in TBS-T and incubated O/N at 4° C. with primary antibodies to bRAF, total ERK1/2, phosphoERK1/2, BCL2, CDK4 and tubulin (Santa Cruz). After incubation with secondary goat-anti-mouse antibodies (Santa Cruz), membranes were developed using ECL (Pierce).
Transfection was performed as described in Example 4 in 6-well format. Proteins were isolated using RIPA buffer (50 mM Tris pH 8.0, 150 mM NaCL, 1% NP-40, 0.5% Sodium deoxycholate, 0.1% SDS), supplemented with Protease Inhibitor Cocktail (Sigma) and Halt™ Phosphatase Inhibitor Cocktail (Pierce/Thermo Scientific). […]

[2] = tested on: CDK4; assay: Western immunoblotting of CDK4 protein levels
Procedure: as §1, with “(1, 10” for “(10, 50”, “hsa-miR-3157” for “hsa-miR-129-5p”, “bRAF, total ERK1/2,” for “bRAF,”, “CDK4, BCL2” for “CDK6,”
as §1, with “concentrations” for “concentrations (10, 50 and 100 nM)”, “vemurafenib (PLX-4032, 0.01, 0.1, 1 uM).” for “synthetic hsa-miR-129-5p or BRAF siRNA (100 nM) using RNAiMAX (7.5 μl/well). As control a scrambled miRNA and a non-targeting siRNA pool were included.”, “bRAF, total ERK1/2,” for “bRAF,”, “CDK4, BCL2” for “CDK6,”
as §2
(§3) Transfection was performed as described in Example 4 in 6-well format. Proteins were isolated using RIPA buffer (50 mM Tris pH 8.0, 150 mM NaCL, 1% NP-40, 0.5% Sodium deoxycholate, 0.1% SDS), supplemented with Protease Inhibitor Cocktail (Sigma) and Halt™ Phosphatase Inhibitor Cocktail (Pierce/Thermo Scientific). Fifteen μg protein was loaded on a 12% Mini-PROTEAN® TGX™ Precast Gel (Bio-Rad), and proteins were transferred to Immun-Blot PVDF Membrane (Bio-Rad). Membranes were blocked in 5% milk or 5% BSA in TBS-T, and incubated O/N at 4° C. with primary antibodies against α-tubulin (1:5000), BRAF, pERK1/2, CDK4, RRM2 (all 1:1000), BCL-2 (1:500) (Santa Cruz), total-ERK1/2 (1:2000), BIRC5, AURKB (1:1000) (Cell Signaling), ERK1 (1:2000) (GeneTex). After incubation with appropriate secondary antibodies and western blot chemiluminescence substrate ECL (Pierce/Thermo Scientific), membranes were exposed to CL-XPosure Film (Pierce/Thermo Scientific).

[3] = tested on: RRM2; assay: Western blotting of RRM2 protein levels
Procedure: as §3

[4] = tested on: AURKB; assay: Western blotting of AURKB protein levels
Procedure: as §3

[5] = A375 cells, increasing concentrations of mimic (FIG. 12c)
[6] = A2058, M249, M249-AR4 and M376, increasing concentrations of mimic (FIG. 14a)
[7] = vemurafenib-resistant A2058, M249-AR4 and M376, 1 μM, 24 hrs (FIG. 14b)
[8] = vemurafenib-sensitive A375 and M249, 1 μM, 24 hrs (FIG. 14b)

With “hsa-miR-3157-5p: mature miRNA mimic, SEQ ID NO 6 UUCAGCCAGGCUAGUGCAGUCU (listed as RNA, chemistry not given here)” the phospho-ERK1/2 protein levels ([1]; A375Hu cells, 72 hrs) was “does not down-regulate; also recorded: not affected”, the phospho-ERK1/2 protein levels ([1]; A2058 cells (vemurafenib resistant), 72 hrs post transfection) was “not down-regulated” and the CDK4 protein levels ([2]; A375Hu cells, 72 hrs, Western blot) was “significant reduction in CDK4 protein levels; also recorded: down-regulated”. For the same molecule, the CDK4 protein levels [2, 5] was “strong reduction”, the CDK4 protein levels ([2]; A2058, increasing concentrations of mimic (FIG. 14a)) was “mild effect” and the CDK4 protein levels ([2]; A2058 cells (vemurafenib resistant), 72 hrs post transfection, Western blot) was “reduction; also recorded: down-regulated”. For the same molecule, the CDK4 protein levels ([2]; M249-AR4, increasing concentrations of mimic (FIG. 14a)) was “no effect”, the CDK4 protein levels ([2]; M249 and M376, increasing concentrations of mimic (FIG. 14a)) was “strong downregulation” and the RRM2 protein levels [3, 5] was “most pronounced”. For the same molecule, the RRM2 protein levels [3, 6] was “strongly downregulated”, the AURKB protein levels [4, 5] was “most pronounced” and the AURKB protein levels [4, 6] was “strongly downregulated”.

For CCCS(=O)(=O)Nc1ccc(F)c(C(=O)c2c[nH]c3ncc(-c4ccc(Cl)cc4)cc23)c1F [Vemurafenib, N-(3-{[5-(4-chlorophenyl)-1H-pyrrolo[2,3-b]pyridin-3-yl]carbonyl}-2,4-difluorophenyl)propane-1-sulfonamide], the phospho-ERK1/2 protein levels ([1]; A375Hu cells, 72 hrs) was “inhibits”, the phospho-ERK1/2 protein levels ([1]; A375Hu cells, 72 hrs, listed as PLX-4032) was “down regulation” and the CDK4 protein levels ([2]; A375Hu cells, 72 hrs, Western blot, listed as PLX-4032) was “not in reduction of CDK4 and BCL2 protein levels”. The RRM2 protein levels [3, 7] was “protein levels similar to control-treated cells”, the RRM2 protein levels [3, 8] was “downregulated” and the AURKB protein levels [4, 7] was “protein levels similar to control-treated cells”. For the same molecule, the AURKB protein levels [4, 8] was “downregulated”.
